Test results as given in US12661365B2, “Use of cannabidiol in the treatment of epilepsy” (priority 2020, dated 2026).

Experiments:
[1] = Phase 1 open-label drug-drug interaction trial: effect of repeated-dose CBD on the pharmacokinetics of a single dose of caffeine (plasma caffeine and paraxanthine, LC-MS/MS); format: in vivo, human; settings: trough samples Days 23, 25 and 26, 750 mg CBD b.i.d., before coadministration on Day 26
Text: The duration of the trial was approximately 10 weeks, which includes a screening period (up to 4 weeks), a treatment period (4 weeks) and a safety follow-up period (2 weeks). After signing the informed consent form (ICF), participants entered the screening period (Day −28 to −1). […] The subjects were resident in the CRU for 2 periods. […] They were discharged on Day 3 after completion of the assessments. On Day 3, the first dose of CBD was taken in the morning in the CRU, and on this day, the escalating doses of CBD were dispensed to subjects to be taken at home from Day 4 to Day 12. After discharge on Day 3, the subjects returned to the CRU for ambulatory visits on Days 12, 18, and 23. At these ambulatory visits, the maintenance doses of CBD were dispensed to subjects to be taken at home from Day 13 to Day 25 (the evening dose of Day 25 was taken in the CRU). The subjects were admitted again to the CRU in the afternoon of Day 25. […] The subjects were discharged on Day 28 after completion of the assessments. […]
Plasma concentration of CBD determined on the following days: 23, 25, and 26. These were determined using liquid chromatography and tandem mass spectrometry. […]

serum ALT = experiment: Liver safety in the Phase 1 trial: serum liver chemistries (peak ALT versus ULN); format: in vivo, human
Text: Clinical laboratory measurements of liver injury and function, the Upper Limit of Normal (ULN) values used are: 68 international units [IU]/L for ALT, 45 IU/L for aspartate aminotransferase (AST), 129 IU/L for alkaline phosphatase (ALP), 29 μmol/L for total bilirubin (TBL), and 59 IU/L for gamma-glutamyl transferase (GGT).
Drug induced liver injury (DILI) is when serum ALT exceeds 5×ULN.
In the above-outlined Phase 1 trial, abnormal liver chemistries were found for the subjects. This was unexpected as subjects were healthy adults receiving therapeutic equivalent doses of CBD used to treat Dravet Syndrome and Lennox-Gastaut Syndrome (1500 mg/day).
Measurements were performed at screening, on trial Days −1, 12, 18, 23, 27, and at follow-up.

[2] = healthy adults, CBD 1500 mg/day
[3] = healthy adults, CBD 1500 mg/day, 16 participants, ALT ULN 68 IU/L

C=C(C)[C@@H]1CCC(C)=C[C@H]1c1c(O)cc(CCCCC)cc1O [CBD, Cannabidiol]
trough plasma levels of CBD [1]: reached steady state | rate of abnormal liver chemistries in healthy volunteers (serum ALT; CBD at the doses used in this study): 44% | exposure time at which all ALT elevations occurred (serum ALT; exposure to cannabidiol): 2-4 weeks | participants with peak ALT >5×ULN (international consensus criteria for DILI) (serum ALT; [2]): 5 (31%) participants | participants with peak serum ALT >2×ULN (serum ALT; [2]): 6 (38%) participants | participants with peak serum ALT ≥2 × ULN (serum ALT; [3]): 6 (38%) | participants with peak serum ALT ≥3 × ULN (serum ALT; [3]): 5 (31%) | participants with peak serum ALT ≥5 × ULN (serum ALT; [3]): 5 (31%) | participants with peak serum ALT ≥10 × ULN (serum ALT; [3]): 0 (0) | participants with peak serum ALT ≥20 × ULN (serum ALT; [3]): 0 (0) | participants with peak serum ALT >ULN (serum ALT; healthy adults, CBD up to 750 mg b.i.d. (1500 mg/day), 16 participants, ALT ULN 68 IU/L): 7 (44%) | trial days between which all ALT elevations occurred (serum ALT; trial day): 18 to 27 days
